Laboratory results reported in ChEMBL document CHEMBL4184220, “Identification of novel plasminogen activator inhibitor-1 inhibitors with improved oral bioavailability: Structure optimization of N-acylanthranilic acid derivatives” (Bioorg Med Chem Lett, 2018).

Test system: not listed separately
Experiment: Cmax in Wistar rat at 5 mg/kg, po administered as triple or quadruple dosing measured after 1 to 24 hrs by reverse-phase HPLC method
Type: ADME, organism-based
Design: dose 5 mg/kg, route oral
Details: in vivo
`O=C(Nc1ccc(Cl)cc1C(=O)[O-])c1cccc(-c2cccc3cnccc23)c1.[Na+]` gave a Cmax of 1.2 µM. Work on `O=C(Nc1ccc(Cl)cc1C(=O)O)c1ccc(Oc2ccccc2)cc1` yielded a Cmax of 64.2 µM. Compound `O=C(Nc1ccc(Cl)cc1C(=O)O)c1ccc(C23CC4CC(CC(C4)C2)C3)cc1` has a Cmax of 13.8 µM. `O=C(Nc1ccc(Cl)cc1C(=O)O)c1cccc(C2=CCCCC2)c1` showed a Cmax of 5.2 µM. In the case of `O=C(Nc1ccc(Cl)cc1C(=O)O)c1cccc(-c2ccoc2)c1`, the Cmax is reported as 29.4 µM. With `O=C(COc1cccc(-c2ccoc2)c1)Nc1ccc(Cl)cc1C(=O)O` the Cmax was 56.3 µM. For `CC(C)Oc1ccc(C(=O)Nc2ccc(Cl)cc2C(=O)O)cc1`, the Cmax was 22.3 µM. Work on `O=C(Nc1ccc(Cl)cc1C(=O)O)c1cccc(-c2ccccc2)c1` yielded a Cmax of 17 µM. Compound `CC(C)(C)c1ccc(C(=O)Nc2ccc(Cl)cc2C(=O)O)cc1` has a Cmax of 64.9 µM. In the case of `O=C(Nc1ccc(Cl)cc1C(=O)O)c1ccc(-c2ccccc2)cc1`, the Cmax is reported as 73.5 µM. Work on `O=C(Nc1ccc(Cl)cc1C(=O)[O-])c1cccc(-c2ccncc2)c1.[Na+]` yielded a Cmax of 5.2 µM. Compound `O=C(COCC(=O)Nc1ccc(Cl)cc1C(=O)O)NCc1cccc(-c2ccoc2)c1` has a Cmax of 14 µM. Compound `O=C(Nc1ccc(Cl)cc1C(=O)O)c1ccc(C2CCCCC2)cc1` has a Cmax of 15.2 µM. With `O=C(Nc1ccc(Cl)cc1C(=O)O)c1cccc(C23CC4CC(CC(C4)C2)C3)c1` the Cmax was 4.4 µM.

Test system: not listed separately
Experiment: Half life in Wistar rat at 5 mg/kg, po administered as triple or quadruple dosing measured after 1 to 24 hrs by reverse-phase HPLC method
Type: ADME, organism-based
Details: in vivo
For `O=C(Nc1ccc(Cl)cc1C(=O)[O-])c1cccc(-c2cccc3cnccc23)c1.[Na+]`, the half-life was 630 min. `O=C(Nc1ccc(Cl)cc1C(=O)O)c1ccc(Oc2ccccc2)cc1` gave a half-life of 798 min. With `O=C(Nc1ccc(Cl)cc1C(=O)O)c1ccc(C23CC4CC(CC(C4)C2)C3)cc1` the half-life was 258 min. `O=C(Nc1ccc(Cl)cc1C(=O)O)c1cccc(C2=CCCCC2)c1` gave a half-life of 42 min. `O=C(Nc1ccc(Cl)cc1C(=O)O)c1cccc(-c2ccoc2)c1` gave a half-life of 120 min. For `O=C(COc1cccc(-c2ccoc2)c1)Nc1ccc(Cl)cc1C(=O)O`, the half-life was 114 min. `CC(C)Oc1ccc(C(=O)Nc2ccc(Cl)cc2C(=O)O)cc1` gave a half-life of 300 min. In the case of `O=C(Nc1ccc(Cl)cc1C(=O)O)c1cccc(-c2ccccc2)c1`, the half-life is reported as 96 min. `CC(C)(C)c1ccc(C(=O)Nc2ccc(Cl)cc2C(=O)O)cc1` showed a half-life of 204 min. With `O=C(Nc1ccc(Cl)cc1C(=O)O)c1ccc(-c2ccccc2)cc1` the half-life was 624 min. For `O=C(Nc1ccc(Cl)cc1C(=O)[O-])c1cccc(-c2ccncc2)c1.[Na+]`, the half-life was 96 min. Compound `O=C(COCC(=O)Nc1ccc(Cl)cc1C(=O)O)NCc1cccc(-c2ccoc2)c1` has a half-life of 162 min. `O=C(Nc1ccc(Cl)cc1C(=O)O)c1ccc(C2CCCCC2)cc1` showed a half-life of 42 min. `O=C(Nc1ccc(Cl)cc1C(=O)O)c1cccc(C23CC4CC(CC(C4)C2)C3)c1` showed a half-life of 138 min.

Test system: not listed separately
Experiment: Cmax in Wistar rat at 50 mg/kg, po administered as single dose measured after 1 to 24 hrs by reverse-phase HPLC method
Type: ADME, organism-based
Design: dose 50 mg/kg, route oral
Details: in vivo
In the case of `O=C(COCC(=O)Nc1ccc(Cl)cc1C(=O)[O-])Nc1cccc(-c2cccnc2)c1.[Na+]`, the Cmax is reported as 15.1 µM. With `O=C(COCC(=O)Nc1ccc(Cl)cc1C(=O)O)Nc1cccc(-c2ccsc2)c1` the Cmax was 86.5 µM. Compound `Cc1ccc(-c2ccc(F)cc2)cc1NC(=O)COCC(=O)Nc1ccc(Cl)cc1C(=O)O` has a Cmax of 92.7 µM. With `O=C(COCC(=O)Nc1ccc(Cl)cc1C(=O)[O-])Nc1cccc(-c2ccccn2)c1.[Na+]` the Cmax was 136 µM. `Cn1cc(-c2cccc(NC(=O)COCC(=O)Nc3ccc(Cl)cc3C(=O)O)c2)cn1` gave a Cmax of 20.5 µM. Compound `O=C(COCC(=O)Nc1ccc(Cl)cc1C(=O)O)Nc1cccc(C(F)(F)F)c1` has a Cmax of 58.6 µM. With `O=C(COCC(=O)Nc1ccccc1-c1ccc(F)cc1)Nc1ccc(Cl)cc1C(=O)O` the Cmax was 41.8 µM. Work on `O=C(COCC(=O)Nc1ccc(Cl)cc1C(=O)[O-])Nc1cccc(-c2ccc(F)cc2)c1.[Na+]` yielded a Cmax of 62.8 µM. `CC(=O)Nc1ccc(-c2ccc(C)c(NC(=O)COCC(=O)Nc3ccc(Cl)cc3C(=O)O)c2)cc1` showed a Cmax of 0.32 µM. Work on `O=C(COCC(=O)Nc1ccc(Cl)cc1C(=O)O)Nc1ccc(-c2ccncc2)cc1` yielded a Cmax of 7.8 µM. `O=C(COCC(=O)Nc1ccc(Cl)cc1C(=O)O)Nc1cccc(-c2ccncc2)c1` showed a Cmax of 18 µM.

Test system: not listed separately
Experiment: Half life in Wistar rat at 50 mg/kg, po administered as single dose measured after 1 to 24 hrs by reverse-phase HPLC method
Details: in vivo
For `Cc1ccc(-c2ccc(F)cc2)cc1NC(=O)COCC(=O)Nc1ccc(Cl)cc1C(=O)O`, the half-life was 108 min. In the case of `O=C(COCC(=O)Nc1ccc(Cl)cc1C(=O)[O-])Nc1cccc(-c2ccccn2)c1.[Na+]`, the half-life is reported as 144 min. For `Cn1cc(-c2cccc(NC(=O)COCC(=O)Nc3ccc(Cl)cc3C(=O)O)c2)cn1`, the half-life was 594 min. `O=C(COCC(=O)Nc1ccc(Cl)cc1C(=O)O)Nc1cccc(C(F)(F)F)c1` gave a half-life of 48 min. `CC(=O)Nc1ccc(-c2ccc(C)c(NC(=O)COCC(=O)Nc3ccc(Cl)cc3C(=O)O)c2)cc1` gave a half-life of 84 min. In the case of `O=C(COCC(=O)Nc1ccc(Cl)cc1C(=O)O)Nc1cccc(-c2ccncc2)c1`, the half-life is reported as greater than 1080 min.

Test system: not listed separately
Experiment: Tmax in Wistar rat at 50 mg/kg, po administered as single dose measured after 1 to 24 hrs by reverse-phase HPLC method
Type: ADME, organism-based
Details: in vivo
`O=C(COCC(=O)Nc1ccc(Cl)cc1C(=O)[O-])Nc1cccc(-c2cccnc2)c1.[Na+]` gave a Tmax of 2 h. For `O=C(COCC(=O)Nc1ccc(Cl)cc1C(=O)O)Nc1cccc(-c2ccsc2)c1`, the Tmax was 2 h. Work on `Cc1ccc(-c2ccc(F)cc2)cc1NC(=O)COCC(=O)Nc1ccc(Cl)cc1C(=O)O` yielded a Tmax of 1 h. Compound `O=C(COCC(=O)Nc1ccc(Cl)cc1C(=O)[O-])Nc1cccc(-c2ccccn2)c1.[Na+]` has a Tmax of 1 h. Work on `Cn1cc(-c2cccc(NC(=O)COCC(=O)Nc3ccc(Cl)cc3C(=O)O)c2)cn1` yielded a Tmax of 2 h. Work on `O=C(COCC(=O)Nc1ccc(Cl)cc1C(=O)O)Nc1cccc(C(F)(F)F)c1` yielded a Tmax of 1 h. Work on `O=C(COCC(=O)Nc1ccccc1-c1ccc(F)cc1)Nc1ccc(Cl)cc1C(=O)O` yielded a Tmax of 1 h. In the case of `O=C(COCC(=O)Nc1ccc(Cl)cc1C(=O)[O-])Nc1cccc(-c2ccc(F)cc2)c1.[Na+]`, the Tmax is reported as 1 h. In the case of `CC(=O)Nc1ccc(-c2ccc(C)c(NC(=O)COCC(=O)Nc3ccc(Cl)cc3C(=O)O)c2)cc1`, the Tmax is reported as 2 h. `O=C(COCC(=O)Nc1ccc(Cl)cc1C(=O)O)Nc1ccc(-c2ccncc2)cc1` gave a Tmax of 6 h. For `O=C(COCC(=O)Nc1ccc(Cl)cc1C(=O)O)Nc1cccc(-c2ccncc2)c1`, the Tmax was 6 h.

Test system: not listed separately
Experiment: Tmax in Wistar rat at 5 mg/kg, po administered as triple or quadruple dosing measured after 1 to 24 hrs by reverse-phase HPLC method
Type: ADME, organism-based
Details: in vivo
With `O=C(Nc1ccc(Cl)cc1C(=O)[O-])c1cccc(-c2cccc3cnccc23)c1.[Na+]` the Tmax was 2 h. With `O=C(Nc1ccc(Cl)cc1C(=O)O)c1ccc(Oc2ccccc2)cc1` the Tmax was 6 h. `O=C(Nc1ccc(Cl)cc1C(=O)O)c1ccc(C23CC4CC(CC(C4)C2)C3)cc1` showed a Tmax of 2 h. Compound `O=C(Nc1ccc(Cl)cc1C(=O)O)c1cccc(C2=CCCCC2)c1` has a Tmax of 1 h. For `O=C(Nc1ccc(Cl)cc1C(=O)O)c1cccc(-c2ccoc2)c1`, the Tmax was 2 h. Compound `O=C(COc1cccc(-c2ccoc2)c1)Nc1ccc(Cl)cc1C(=O)O` has a Tmax of 2 h. Compound `CC(C)Oc1ccc(C(=O)Nc2ccc(Cl)cc2C(=O)O)cc1` has a Tmax of 1 h. With `O=C(Nc1ccc(Cl)cc1C(=O)O)c1cccc(-c2ccccc2)c1` the Tmax was 2 h. Compound `CC(C)(C)c1ccc(C(=O)Nc2ccc(Cl)cc2C(=O)O)cc1` has a Tmax of 1 h. In the case of `O=C(Nc1ccc(Cl)cc1C(=O)O)c1ccc(-c2ccccc2)cc1`, the Tmax is reported as 2 h. For `O=C(Nc1ccc(Cl)cc1C(=O)[O-])c1cccc(-c2ccncc2)c1.[Na+]`, the Tmax was 2 h. In the case of `O=C(COCC(=O)Nc1ccc(Cl)cc1C(=O)O)NCc1cccc(-c2ccoc2)c1`, the Tmax is reported as 2 h. Work on `O=C(Nc1ccc(Cl)cc1C(=O)O)c1ccc(C2CCCCC2)cc1` yielded a Tmax of 1 h. For `O=C(Nc1ccc(Cl)cc1C(=O)O)c1cccc(C23CC4CC(CC(C4)C2)C3)c1`, the Tmax was 2 h.

Target: Plasminogen activator inhibitor 1 (Homo sapiens, UniProt P05121)
Sequence (P05121 whole entry): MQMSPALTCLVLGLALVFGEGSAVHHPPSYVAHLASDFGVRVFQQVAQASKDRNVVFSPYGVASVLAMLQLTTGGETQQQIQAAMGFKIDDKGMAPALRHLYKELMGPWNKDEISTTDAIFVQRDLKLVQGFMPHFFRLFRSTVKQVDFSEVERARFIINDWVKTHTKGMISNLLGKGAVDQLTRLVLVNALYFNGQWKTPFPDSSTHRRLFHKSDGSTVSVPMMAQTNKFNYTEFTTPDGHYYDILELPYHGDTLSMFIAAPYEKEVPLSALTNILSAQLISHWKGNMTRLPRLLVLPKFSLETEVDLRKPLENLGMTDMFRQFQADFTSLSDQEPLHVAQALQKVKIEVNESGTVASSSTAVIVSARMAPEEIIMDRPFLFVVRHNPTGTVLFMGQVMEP
Experiment: Inhibition of human PAI-1 assessed as remaining enzyme activity by measuring p-nitroaniline release pre-incubated for 15 mins before 2 nM […] addition for 15 mins using 5 nM enzyme and chromogenic substrate S-2288 by spectrophotometry
Details: not given
`O=C(Nc1ccc(Cl)cc1C(=O)[O-])c1cccc(-c2cccc3cnccc23)c1.[Na+]` showed an IC50 of 1840 nM. With `O=C(Nc1ccc(Cl)cc1C(=O)O)c1ccc(Oc2ccccc2)cc1` the IC50 was 5520 nM. In the case of `O=C(Nc1ccc(Cl)cc1C(=O)O)c1ccc(C23CC4CC(CC(C4)C2)C3)cc1`, the IC50 is reported as 1170 nM. Compound `O=C(Nc1ccc(Cl)cc1C(=O)O)c1cccc(C2=CCCCC2)c1` has an IC50 of 2310 nM. In the case of `CC(C)Oc1ccc(C(=O)Nc2ccc(Cl)cc2C(=O)O)cc1`, the IC50 is reported as greater than 10000 nM. For `O=C(Nc1ccc(Cl)cc1C(=O)O)c1cccc(-c2ccccc2)c1`, the IC50 was 2820 nM. For `CC(C)(C)c1ccc(C(=O)Nc2ccc(Cl)cc2C(=O)O)cc1`, the IC50 was 5200 nM. Compound `O=C(Nc1ccc(Cl)cc1C(=O)O)c1ccc(-c2ccccc2)cc1` has an IC50 of 2980 nM. `O=C(Nc1ccc(Cl)cc1C(=O)[O-])c1cccc(-c2ccncc2)c1.[Na+]` gave an IC50 greater than 40000 nM. `O=C(Nc1ccc(Cl)cc1C(=O)O)c1ccc(C2CCCCC2)cc1` gave an IC50 of 2400 nM. With `O=C(Nc1ccc(Cl)cc1C(=O)O)c1cccc(C23CC4CC(CC(C4)C2)C3)c1` the IC50 was 1860 nM.
